Measured values published in US8222218B2, “Cyclopropanated carbohydrates” (Seton Hall University, priority 2008, dated 2012).
Read-outs that look alike come from different tables or passages of the source.

What was measured:
Type in all cases: in vivo
[1] = test system: metrazole-induced clonic seizures; test: Subcutaneous Metrazole Seizure Threshold Test (scMET), mice; details: for responders at 30 mg/kg / responders at 100 mg/kg / responders at 300 mg/kg: Mus musculus, sc
Method: The subcutaneous injection of metrazole, which is a convulsant, produces clonic seizures in laboratory animals. The scMET test is designed to identify compounds that raise the seizure threshold of an animal. Mice are pretreated with test compound at 30, 100, and 300 mg/kg doses in a similar manner to the MES test. Rats are treated with a 50 mg/kg dose (p.o.). At the previously determined TPE of the test compound, the dose of metrazole that will induce convulsions in 97% of animals (CD97: 85 mg/kg mice) is injected into the loose fold of the skin in the midline of the neck. The animals are placed in isolation cages to minimize stress and observed for the next 30 minutes for the presence or absence of seizures. An episode of clonic spasms (approximately 3-5 seconds) of the fore and/or hindlimbs, jaws or vibrissae is taken as the endpoint.
(§1) Male and female albino CF1 mice (18-25 g, Charles River, Portage, Mich.) and male albino Sprague-Dawley rats (275-300 g, kindling test; 100-150 g all other tests; Charles River, Raleigh, N.C.) were used as experimental animals.

[2] = test system: MES-induced seizures; test: Maximal Electroshock Seizure (MES) test, mice; details: for responders at 30 mg/kg / responders at 100 mg/kg / responders at 300 mg/kg: Mus musculus, ip
Source text: The MES test is a model for generalized tonic-clonic seizures. The seizures are highly reproducible and electrophysiologically consistent with human seizures. The test provides information about a compound's ability to prevent the spread of seizure when all neuronal circuits of the brain are maximally active. 60 Hz of alternating current (50 mA in mice, 150 mA in rats) is applied for 2 seconds via corneal electrodes that have been treated with an electrolyte solution containing an anesthetic (0.5% tetracaine HCl). Mice are tested at a variety of intervals after an i.p. injection of […] solution of the test compound (commonly in a 0.5% solution of methylcellulose) at 30, 100, and 300 mg/kg doses. Rats are examined after a 30 mg/kg (per os, p.o.) dose that is applied in a volume of 0.04 mL/g. An animal is considered “protected” from MES-induced seizures upon removal of the hind limb extensor component of the seizure.
as §1

[3] = Acute toxicity, minimal motor impairment (rotorod), mice; details: mice, rotorod; for TOX 30 0.5 h (animals toxic/tested) / TOX 30 4 h (animals toxic/tested): 30 mg/kg; for TOX 100 0.5 h (animals toxic/tested) / TOX 100 4 h (animals toxic/tested): 100 mg/kg; for TOX 300 0.5 h (animals toxic/tested) / TOX 300 4 h (animals toxic/tested): 300 mg/kg
Method: Toxicity was measured using the minimal motor impairment test described below.
Animals are monitored for overt signs of impaired neurological or muscular function to assess a compound's toxicity. In mice, the rotorod procedure is used to disclose minimal muscular or neurological impairment. When a mouse is placed on a rotating rod (6 rpm), the animal can maintain its equilibrium for long periods of time. The animal is considered toxic if it falls off the rotating rod three times during a 1 minute period. In rats, minimal motor deficit is indicated by ataxia, which is manifested by an abnormal, uncoordinated gait.

[4] = 0.4 h, read-out: scMET 30 0.4 h (animals protected/tested)
[5] = 0.4 h, read-out: scMET 100 0.4 h (animals protected/tested)
[6] = 0.4 h, read-out: scMET 300 0.4 h (animals protected/tested)
[7] = 0.5 h, read-out: scMET 30 0.5 h (animals protected/tested)
[8] = 0.5 h, read-out: scMET 100 0.5 h (animals protected/tested)
[9] = 0.5 h, read-out: scMET 300 0.5 h (animals protected/tested)
[10] = 0.5 h, read-out: MES 30 0.5 h (animals protected/tested)
[11] = 0.5 h, read-out: MES 100 0.5 h (animals protected/tested)
[12] = 0.5 h, read-out: MES 300 0.5 h (animals protected/tested)
[13] = 4 h, read-out: MES 30 4 h (animals protected/tested)
[14] = 4 h, read-out: MES 100 4 h (animals protected/tested)
[15] = 4 h, read-out: MES 300 4 h (animals protected/tested)
[16] = mice, 30 mg/kg, 0.4 h, read-out: scMET 30 0.4 h (animals protected/tested)
[17] = mice, 30 mg/kg, 0.5 h, read-out: scMET 30 0.5 h (animals protected/tested)
[18] = mice, 100 mg/kg, 0.4 h, read-out: scMET 100 0.4 h (animals protected/tested)
[19] = mice, 100 mg/kg, 0.5 h, read-out: scMET 100 0.5 h (animals protected/tested)
[20] = mice, 300 mg/kg, 0.4 h, read-out: scMET 300 0.4 h (animals protected/tested)
[21] = mice, 300 mg/kg, 0.5 h, read-out: scMET 300 0.5 h (animals protected/tested)
[22] = mice, i.p., 30 mg/kg, 0.5 h, read-out: MES 30 0.5 h (animals protected/tested)
[23] = mice, i.p., 30 mg/kg, 4 h, read-out: MES 30 4 h (animals protected/tested)
[24] = mice, i.p., 100 mg/kg, 0.5 h, read-out: MES 100 0.5 h (animals protected/tested)
[25] = mice, i.p., 100 mg/kg, 4 h, read-out: MES 100 4 h (animals protected/tested)
[26] = mice, i.p., 300 mg/kg, 0.5 h, read-out: MES 300 0.5 h (animals protected/tested)
[27] = mice, i.p., 300 mg/kg, 4 h, read-out: MES 300 4 h (animals protected/tested)

SMILES | responders at 30 mg/kg [1, 4] [%] | responders at 100 mg/kg [1, 5] [%] | TOX 30 0.5 h (animals toxic/tested) [3] | TOX 30 4 h (animals toxic/tested) [3] | TOX 100 0.5 h (animals toxic/tested) [3] | TOX 100 4 h (animals toxic/tested) [3] | TOX 300 0.5 h (animals toxic/tested) [3] | TOX 300 4 h (animals toxic/tested) [3] | responders at 30 mg/kg [1, 16] [%] | responders at 30 mg/kg [1, 17] [%] | responders at 100 mg/kg [1, 18] [%] | responders at 100 mg/kg [1, 19] [%] | responders at 300 mg/kg [1, 20] [%] | responders at 300 mg/kg [1, 21] [%] | responders at 30 mg/kg [2, 22] [%] | responders at 30 mg/kg [2, 23] [%] | responders at 100 mg/kg [2, 24] [%] | responders at 100 mg/kg [2, 25] [%] | responders at 300 mg/kg [2, 26] [%] | responders at 300 mg/kg [2, 27] [%] | further results
CCOC(=O)[C@@H]1[C@H]2O[C@@H]3CO[Si](C(C)(C)C)(C(C)(C)C)O[C@H]3/C(=N/O)[C@H]21 [Compound 4] | 0 | 0 | 0/4 | 0/2 | 0/8 | 1/4 | 0/4 | 0/2 |  |  |  |  |  |  |  |  |  |  |  |  | responders at 300 mg/kg [1, 6]: 0%; responders at 30 mg/kg [1, 7]: 0%; responders at 100 mg/kg [1, 8]: 0%; responders at 300 mg/kg [1, 9]: 0%; responders at 30 mg/kg [2, 10]: 0%; responders at 100 mg/kg [2, 11]: 0%; responders at 300 mg/kg [2, 12]: 0%; responders at 30 mg/kg [2, 13]: 0%; responders at 100 mg/kg [2, 14]: 0%; responders at 300 mg/kg [2, 15]: 0%
CCOC(=O)[C@@H]1[C@H]2O[C@@H]3CO[Si](C(C)(C)C)(C(C)(C)C)O[C@H]3[C@H](OS(=O)(=O)N(C)C)[C@H]21 [Compound 5, (1S,1as,2R,2aR,6aR,7aS)-4,4-di-tert-butyl-2-dimethylsulfamoyloxy-hexahydro-3,5,7-trioxa-4-sila-cyclopropa[b]naphthalene-1-carboxylic acid ethyl ester] | 0 | 0 | 0/4 | 0/2 | 0/8 | 0/4 | 1/4 | 0/2 |  |  |  |  |  |  |  |  |  |  |  |  | responders at 300 mg/kg [1, 6]: 0%; responders at 30 mg/kg [1, 7]: 0%; responders at 100 mg/kg [1, 8]: 0%; responders at 300 mg/kg [1, 9]: 0%; responders at 30 mg/kg [2, 10]: 0%; responders at 100 mg/kg [2, 11]: 0%; responders at 300 mg/kg [2, 12]: 0%; responders at 30 mg/kg [2, 13]: 0%; responders at 100 mg/kg [2, 14]: 0%; responders at 300 mg/kg [2, 15]: 0%
CCOC(=O)C1[C@@H]2[C@@H](O)[C@@H]3OC(C)(C)OC[C@H]3O[C@H]12 (stereo partly drawn) [Compound 6a, Ethyl (4aR,5aS,6aR,7R,7aS)-7-hydroxy-2,2-dimethylhexahydro-4H-cyclopropa[5,6]pyrano[3,2-d][1,3]dioxine-6-carboxylate] |  |  | 0/4 | 0/2 | 0/8 | 0/4 | 0/4 | 0/2 | 0 | 0 | 0 | 0 | 0 | 0 | 0 | 0 | 0 | 0 | 0 | 0 | 
CCOC(=O)C1[C@@H]2[C@@H](OS(=O)(=O)N(C)C)[C@@H]3OC(C)(C)OC[C@H]3O[C@H]12 (stereo partly drawn) [Compound 8a, Ethyl (4aR,5aS,6aS,7R,7aR)-7-[(dimethlylsulfamoyl)oxy]-2,2-dimethylhexahydro-4H-cyclopropa[5,6]pyrano[3,2-d][1,3]dioxine-6-carboxylate] |  |  | 0/4 | 0/2 | 0/8 | 0/4 | 1/4 | 0/2 |  |  |  |  |  |  |  |  |  |  |  |  | scMET 30 0.4 h (animals protected/tested) ([1]; mice, 30 mg/kg, 0.4 h): 0/1; scMET 30 0.5 h (animals protected/tested) ([1]; mice, 30 mg/kg, 0.5 h): 0/1; scMET 100 0.4 h (animals protected/tested) ([1]; mice, 100 mg/kg, 0.4 h): 0/1; scMET 100 0.5 h (animals protected/tested) ([1]; mice, 100 mg/kg, 0.5 h): 0/1; scMET 300 0.4 h (animals protected/tested) ([1]; mice, 300 mg/kg, 0.4 h): 0/1; scMET 300 0.5 h (animals protected/tested) ([1]; mice, 300 mg/kg, 0.5 h): 0/1; MES 30 0.5 h (animals protected/tested) ([2]; mice, i.p., 30 mg/kg, 0.5 h): 0/1; MES 30 4 h (animals protected/tested) ([2]; mice, i.p., 30 mg/kg, 4 h): 0/1; MES 100 0.5 h (animals protected/tested) ([2]; mice, i.p., 100 mg/kg, 0.5 h): 0/3; MES 100 4 h (animals protected/tested) ([2]; mice, i.p., 100 mg/kg, 4 h): 0/3; MES 300 0.5 h (animals protected/tested) ([2]; mice, i.p., 300 mg/kg, 0.5 h): 0/1; MES 300 4 h (animals protected/tested) ([2]; mice, i.p., 300 mg/kg, 4 h): 0/1
CCOC(=O)C1[C@@H]2[C@@H](OS(N)(=O)=O)[C@@H]3OC(C)(C)OC[C@H]3O[C@H]12 (stereo partly drawn) [Compound 8b, ethyl (4aR,5aS,6aS,7R,7aR)-2,2-dimethyl-7-(sulfamoyloxy)hexahydro-4H-cyclopropa[5,6]pyrano[3,2-d][1,3]dioxine-6-carboxylate] |  |  | 0/4 | 0/2 | 1/8 | 0/4 | 1/4 | 0/2 | 0 | 0 | 0 | 0 | 0 | 0 | 0 | 0 | 0 | 0 | 0 | 0 | 
CCOC(=O)[C@@H]1[C@H]2O[C@@H]3COC(C)(C)O[C@H]3[C@H](OC)[C@H]21 [Compound 9, Ethyl (4aR,5aS,6aS,7R,7aS)-7-methoxy-2.2-dimethylhexahydro-4H-cyclopropa[5,6]pyrano[3,2-d][1,3]dioxine-6-carboxylate] |  |  | 0/4 | 0/2 | 0/8 | 0/4 | 0/4 | 0/2 | 0 | 0 | 0 | 0 | 0 | 0 | 0 | 0 | 0 | 0 | 0 | 0 | 
